Source: the Deep4Chem optical property database

Experiment: solvent given as SMILES

**Q.** Which fluorescence lifetime (in O) does the source give for CC1(C)C(=O)C=Cc2ccc(O)cc21 here?
**A.** 2.45 ns

**Q.** Which fluorescence lifetime (in CC#N) does the source give for Cc1cccc2c1nc1c(=O)n(C)c(=O)nc-1n2C here?
**A.** 1.8 ns

**Q.** Which fluorescence lifetime (in Cc1ccccc1) does the source give for CCCCCCCCc1ccc(-c2ccc(/C=C(\C#N)c3ccc(-c4cccc5cccc(-c6ccc(/C(C#N)=C/c7ccc(-c8ccc(CCCCCCCC)cc8)cc7)cc6)c45)cc3)cc2)cc1 here?
**A.** 4.9 ns

**Q.** For COc1ccc(C2=C(c3ccccc3)C(c3ccccc3)=[N+]3C2=Nc2c(-c4ccc(OC)cc4)c(-c4ccccc4)c(-c4ccccc4)n2[B-]3(F)F)cc1, which fluorescence lifetime (in Cc1ccccc1) is on record?
**A.** 0.26 ns

**Q.** Which fluorescence lifetime (in CC#N) does the source give for Cc1ccc2nc3[nH]c(=O)[nH]c(=O)c3nc2c1C here?
**A.** 2.41 ns

**Q.** With C(#Cc1nccnc1C#Cc1ccccc1)c1ccccc1 as the molecule, how does the fluorescence lifetime (in CC#N) read?
**A.** 0.336 ns

**Q.** For O=[N+]([O-])c1ccc2c(c1)-c1c3c(c4c([n+]1[B-](F)(F)O2)CCc1ccccc1-4)CCc1ccccc1-3, which fluorescence lifetime (in ClCCl) is on record?
**A.** 0.63 ns

**Q.** With CCCCC#Cc1cccc2cc(CCCC)c3cc(-c4cc[b-]5c(c4)c(CCCC)cc4cccc(C#CCCCC)[n+]54)cc[b-]3[n+]12 as the molecule, how does the fluorescence lifetime (in C1CCCCC1) read?
**A.** 4 ns

**Q.** Which fluorescence lifetime (in CC#N) does the source give for Cc1cc(C)c2nc3c(=O)[nH]c(=O)[nH]c3nc2c1 here?
**A.** 1.24 ns

**Q.** With COc1ncccc1B(O)O as the molecule, how does the fluorescence lifetime (in C1COCCO1) read?
**A.** 0.415 ns

**Q.** What about the fluorescence lifetime (in CC(C)O) of the same molecule?
**A.** 0.399 ns

**Q.** And the fluorescence lifetime (in CCCCCC)?
**A.** 0.211 ns

**Q.** And the fluorescence lifetime (in CCCCCCC)?
**A.** 0.253 ns

**Q.** What about the fluorescence lifetime (in CCCCCCCC) of the same molecule?
**A.** 0.299 ns

**Q.** And the fluorescence lifetime (in CCCCCCCCO)?
**A.** 0.463 ns

**Q.** And the fluorescence lifetime (in CCO)?
**A.** 0.499 ns

**Q.** What about the fluorescence lifetime (in CO) of the same molecule?
**A.** 1.57 ns

**Q.** Which results are given for CN(C)c1ccc(/C=C/C=C2\CC/C(=C\C=C\c3ccc(N(C)C)cc3)C2=O)cc1?
**A.** fluorescence lifetime (in C1CCCCC1): 0.48 ns; fluorescence lifetime (in CC#N): 0.49 ns; fluorescence lifetime (in CC(C)=O): 0.8 ns; fluorescence lifetime (in CC(C)O): 0.56 ns; fluorescence lifetime (in CCCCCC): 0.86 ns; fluorescence lifetime (in CCCCO): 0.37 ns; fluorescence lifetime (in CCCO): 0.19 ns; fluorescence lifetime (in CCO): 0.24 ns; fluorescence lifetime (in CCOC(C)=O): 0.69 ns; fluorescence lifetime (in CCOCC): 0.76 ns; fluorescence lifetime (in CN(C)C=O): 0.67 ns; fluorescence lifetime (in CO): 0.21 ns; fluorescence lifetime (in CS(C)=O): 0.58 ns; fluorescence lifetime (in Cc1ccccc1): 0.86 ns; fluorescence lifetime (in ClC(Cl)(Cl)Cl): 0.76 ns; fluorescence lifetime (in ClCCl): 1.08 ns; fluorescence lifetime (in OCC(F)(F)F): 0.14 ns; fluorescence lifetime (in S=C=S): 0.83 ns; fluorescence lifetime (in c1ccccc1): 0.81 ns; fluorescence lifetime (in c1ccncc1): 1.17 ns

**Q.** With c1ccc(-c2nc(-c3ccccc3)nc(-c3ccc(-c4ccc(N5c6ccccc6[Si](c6ccccc6)(c6ccccc6)c6ccccc65)cc4)cc3)n2)cc1 as the molecule, how does the fluorescence lifetime (in c1cc(-n2c3ccccc3c3ccccc32)cc(-n2c3ccccc3c3ccccc32)c1) read?
**A.** 6 ns

**Q.** Which fluorescence lifetime (in C1CCCCC1) does the source give for COc1ccc2c(c1)-c1ccccc1C2=O here?
**A.** 5.3 ns

**Q.** And the fluorescence lifetime (in CC#N)?
**A.** 14 ns

**Q.** What about the fluorescence lifetime (in CCO) of the same molecule?
**A.** 1.1 ns

**Q.** For COc1ccc(-c2csc(/C(C#N)=C/c3ccccc3Cl)n2)cc1, which fluorescence lifetime (in CC#N) is on record?
**A.** 3.93 ns

**Q.** Which fluorescence lifetime (in CC1CCCO1) does the source give for O=S1(=O)c2ccc(-c3ccc4c(c3)c3ccccc3n4-c3ccccc3)cc2C2(c3cc(-c4ccc5c(c4)c4ccccc4n5-c4ccccc4)ccc31)c1cc(-c3ccc4c(c3)c3ccccc3n4-c3ccccc3)ccc1S(=O)(=O)c1ccc(-c3ccc4c(c3)c3ccccc3n4-c3ccccc3)cc12 here?
**A.** 100 ns

**Q.** Which fluorescence lifetime (in ClCCl) does the source give for CCc1c(C)[nH]c(C2=[N+]3C(=Cc4c(C)c(CC)c(/C=C/c5ccc(N(C)C)cc5)n4[B-]3(F)F)c3ccccc32)c1C here?
**A.** 2.3 ns

**Q.** With CC1=[N+]2C(=C(NCc3ccccc3)c3ccc(C)n3[B-]2(F)F)C=C1c1cc2n(c1)[B-](F)(F)[N+]1=CC=CC1=C2c1c(C)cc(C)cc1C as the molecule, how does the fluorescence lifetime (in C1CCCCC1) read?
**A.** 2.19 ns

**Q.** And the fluorescence lifetime (in CCOC(C)=O)?
**A.** 0.54 ns

**Q.** Which fluorescence lifetime (in ClCCl) does the source give for Brc1cc(/C=C/c2ccc(N(c3ccccc3)c3ccccc3)cc2)c(Br)cc1/C=C/c1ccc(N(c2ccccc2)c2ccccc2)cc1 here?
**A.** 0.89 ns

**Q.** For N#Cc1c(-n2c3ccc(Br)cc3c3cc(Br)ccc32)c(-n2c3ccc(Br)cc3c3cc(Br)ccc32)c(C#N)c(-n2c3ccc(Br)cc3c3cc(Br)ccc32)c1-n1c2ccc(Br)cc2c2cc(Br)ccc21, which fluorescence lifetime (in Cc1ccccc1) is on record?
**A.** 0.3 ns

**Q.** Which fluorescence lifetime (in CC#N) does the source give for COc1ccc(-c2csc(/C(C#N)=C/c3ccc(C#N)cc3)n2)cc1 here?
**A.** 1.43 ns

**Q.** With CC(=O)Nc1ccccc1C(=O)OC1CC(C)CCC1C(C)C (configuration not stated) as the molecule, how does the fluorescence lifetime (in C1CCCCC1) read?
**A.** 4 ns

**Q.** What about the fluorescence lifetime (in CC#N) of the same molecule?
**A.** 3.4 ns

**Q.** What about the fluorescence lifetime (in CCO) of the same molecule?
**A.** 3.6 ns

**Q.** And the fluorescence lifetime (in Cc1ccccc1)?
**A.** 3.9 ns

**Q.** With CCCCCCCC[n+]1ccc(-c2cc[n+](CCCCCCCC)cc2)cc1 as the molecule, how does the fluorescence lifetime (in CC#N) read?
**A.** 1 ns

**Q.** Which fluorescence lifetime (in CC#N) does the source give for COc1ccc2nc(/N=N/c3ccc(N(C)C)cc3)sc2c1 here?
**A.** 4.92 ns

**Q.** And the fluorescence lifetime (in ClCCl)?
**A.** 4.98 ns

**Q.** Which fluorescence lifetime (in Cc1ccccc1) does the source give for CN(C)c1ccc(C2=Nc3sc4c(F)c(F)c(F)c(F)c4[n+]3[B-](F)(F)O2)cc1 here?
**A.** 2 ns

**Q.** For CCC1=C(C)C2=C(C)c3c(C)c(CC)c(C)n3[B-](F)(F)[N+]2=C1C, which fluorescence lifetime (in C1CCCCC1) is on record?
**A.** 5.6 ns

**Q.** What about the fluorescence lifetime (in C1CCOC1) of the same molecule?
**A.** 5.63 ns

**Q.** And the fluorescence lifetime (in C1COCCO1)?
**A.** 5.48 ns

**Q.** And the fluorescence lifetime (in CC#N)?
**A.** 5.96 ns

**Q.** And the fluorescence lifetime (in CC(C)=O)?
**A.** 5.92 ns

**Q.** And the fluorescence lifetime (in CC(C)O)?
**A.** 6.04 ns

**Q.** What about the fluorescence lifetime (in CCC(C)C) of the same molecule?
**A.** 6.28 ns

**Q.** And the fluorescence lifetime (in CCCCCC)?
**A.** 5.9 ns

**Q.** And the fluorescence lifetime (in CCCCCCCC)?
**A.** 5.84 ns

**Q.** What about the fluorescence lifetime (in CCCCCCCCCCO) of the same molecule?
**A.** 5.71 ns

**Q.** What about the fluorescence lifetime (in CCCCCCCCO) of the same molecule?
**A.** 5.9 ns

**Q.** And the fluorescence lifetime (in CCCCCCO)?
**A.** 5.78 ns

**Q.** What about the fluorescence lifetime (in CCCCO) of the same molecule?
**A.** 5.98 ns

**Q.** And the fluorescence lifetime (in CCCO)?
**A.** 6.01 ns

**Q.** What about the fluorescence lifetime (in CCO) of the same molecule?
**A.** 6.09 ns

**Q.** And the fluorescence lifetime (in CCOC(C)=O)?
**A.** 5.78 ns

**Q.** And the fluorescence lifetime (in CCOCC)?
**A.** 6.21 ns

**Q.** What about the fluorescence lifetime (in CN1CCCC1=O) of the same molecule?
**A.** 5.56 ns

**Q.** And the fluorescence lifetime (in CN(C)C=O)?
**A.** 5.57 ns

**Q.** What about the fluorescence lifetime (in CO) of the same molecule?
**A.** 6.1 ns

**Q.** And the fluorescence lifetime (in Cc1ccccc1)?
**A.** 5.07 ns

**Q.** What about the fluorescence lifetime (in OCC(F)(F)F) of the same molecule?
**A.** 6.94 ns

**Q.** What about the fluorescence lifetime (in OCCO) of the same molecule?
**A.** 5.8 ns

**Q.** And the fluorescence lifetime (in OCCOc1ccccc1)?
**A.** 5.46 ns

**Q.** What about the fluorescence lifetime (in c1ccccc1) of the same molecule?
**A.** 5 ns
